ChEMBL document CHEMBL1129670, “Synthesis and structure-activity relationships of N-propyl-N-(4-pyridinyl)-1H-indol-1-amine (besipirdine) and related analogs as potential therapeutic agents for Alzheimer's disease” (J Med Chem, 1996)
pIC50: −log10 of the molar value.

How the values were obtained:
[1] = biological target: T1, Adrenergic receptor alpha-2 (Rattus norvegicus, UniProt P22086+P19328+P22909); assay: Inhibitory activity against [3H]yohimbine binding to Alpha-2 adrenergic receptor in rat cortex
T1 sequence (P22086 whole entry): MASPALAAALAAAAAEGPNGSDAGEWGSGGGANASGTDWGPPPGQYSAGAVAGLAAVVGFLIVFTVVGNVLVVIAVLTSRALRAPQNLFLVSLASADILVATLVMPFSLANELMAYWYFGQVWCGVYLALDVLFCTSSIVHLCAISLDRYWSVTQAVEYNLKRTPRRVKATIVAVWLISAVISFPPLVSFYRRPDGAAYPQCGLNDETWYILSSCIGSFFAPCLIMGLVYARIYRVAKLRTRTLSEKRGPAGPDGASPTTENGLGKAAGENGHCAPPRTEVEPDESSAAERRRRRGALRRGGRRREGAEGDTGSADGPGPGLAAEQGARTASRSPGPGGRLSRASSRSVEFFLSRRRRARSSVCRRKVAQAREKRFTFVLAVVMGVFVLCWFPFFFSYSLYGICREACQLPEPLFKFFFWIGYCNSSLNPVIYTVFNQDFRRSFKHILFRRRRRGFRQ
T1 sequence (P19328 whole entry): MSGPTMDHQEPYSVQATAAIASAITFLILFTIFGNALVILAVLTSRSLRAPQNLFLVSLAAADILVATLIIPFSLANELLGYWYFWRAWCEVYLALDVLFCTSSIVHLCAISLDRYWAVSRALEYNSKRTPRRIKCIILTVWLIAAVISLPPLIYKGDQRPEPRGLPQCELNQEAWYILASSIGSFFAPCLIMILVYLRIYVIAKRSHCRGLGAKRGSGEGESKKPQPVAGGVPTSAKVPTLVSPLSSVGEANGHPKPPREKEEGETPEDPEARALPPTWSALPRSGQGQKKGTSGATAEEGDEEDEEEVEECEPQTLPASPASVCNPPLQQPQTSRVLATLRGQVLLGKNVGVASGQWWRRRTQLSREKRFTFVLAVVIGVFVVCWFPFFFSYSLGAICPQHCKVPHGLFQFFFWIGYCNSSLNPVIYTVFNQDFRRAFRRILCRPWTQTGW
T1 sequence (P22909 whole entry): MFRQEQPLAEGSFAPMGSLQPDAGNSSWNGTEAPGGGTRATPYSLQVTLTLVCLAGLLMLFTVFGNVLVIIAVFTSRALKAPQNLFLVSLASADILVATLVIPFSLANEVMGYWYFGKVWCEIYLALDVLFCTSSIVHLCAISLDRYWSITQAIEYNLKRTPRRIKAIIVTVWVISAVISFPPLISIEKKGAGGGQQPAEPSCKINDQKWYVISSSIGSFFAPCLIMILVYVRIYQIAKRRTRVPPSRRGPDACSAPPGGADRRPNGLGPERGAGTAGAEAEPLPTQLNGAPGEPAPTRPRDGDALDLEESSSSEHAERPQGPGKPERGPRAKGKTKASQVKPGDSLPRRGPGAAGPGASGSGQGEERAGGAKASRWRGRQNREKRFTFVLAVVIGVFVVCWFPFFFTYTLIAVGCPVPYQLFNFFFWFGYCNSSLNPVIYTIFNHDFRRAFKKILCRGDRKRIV

Glutamate NMDA receptor [2] = assay: Inhibitory activity against [3H]-CPP binding to NMDA receptor in rat cortex
[3] = biological target: T1, Adrenergic receptor alpha-2; assay: Inhibitory activity against [3H]idazoxan binding to Alpha-2 adrenergic receptor in rat cortex, in the presence of GPP
[4] = biological target: T1, Adrenergic receptor alpha-2; assay: Inhibitory activity against [3H]-idazoxan binding to Alpha-2 adrenergic receptor in rat cortex
D(1A) dopamine receptor = D(1A) dopamine receptor (Rattus norvegicus, UniProt P18901); assay: Inhibitory activity against [3H]SCH-23390 binding to Dopamine receptor D1 in rat striatum; type: tissue-based
D(1A) dopamine receptor, sequence (P18901 whole entry): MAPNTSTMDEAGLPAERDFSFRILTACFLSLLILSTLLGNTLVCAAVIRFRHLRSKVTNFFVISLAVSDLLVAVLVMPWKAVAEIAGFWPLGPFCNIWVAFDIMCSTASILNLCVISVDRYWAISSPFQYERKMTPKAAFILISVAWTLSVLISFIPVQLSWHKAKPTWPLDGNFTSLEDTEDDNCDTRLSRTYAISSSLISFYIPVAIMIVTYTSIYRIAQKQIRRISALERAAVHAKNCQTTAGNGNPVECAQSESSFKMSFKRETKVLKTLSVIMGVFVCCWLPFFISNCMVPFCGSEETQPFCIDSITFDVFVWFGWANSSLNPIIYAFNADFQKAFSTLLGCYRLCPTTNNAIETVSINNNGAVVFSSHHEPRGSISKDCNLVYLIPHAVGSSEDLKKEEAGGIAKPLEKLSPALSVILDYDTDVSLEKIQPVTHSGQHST

D(2) dopamine receptor = D(2) dopamine receptor (Rattus norvegicus, UniProt P61169); assay: Inhibitory activity against [3H]spiroperidol bingind to Dopamine receptor D2 in rat striatum; type: tissue-based
D(2) dopamine receptor, sequence (P61169 whole entry): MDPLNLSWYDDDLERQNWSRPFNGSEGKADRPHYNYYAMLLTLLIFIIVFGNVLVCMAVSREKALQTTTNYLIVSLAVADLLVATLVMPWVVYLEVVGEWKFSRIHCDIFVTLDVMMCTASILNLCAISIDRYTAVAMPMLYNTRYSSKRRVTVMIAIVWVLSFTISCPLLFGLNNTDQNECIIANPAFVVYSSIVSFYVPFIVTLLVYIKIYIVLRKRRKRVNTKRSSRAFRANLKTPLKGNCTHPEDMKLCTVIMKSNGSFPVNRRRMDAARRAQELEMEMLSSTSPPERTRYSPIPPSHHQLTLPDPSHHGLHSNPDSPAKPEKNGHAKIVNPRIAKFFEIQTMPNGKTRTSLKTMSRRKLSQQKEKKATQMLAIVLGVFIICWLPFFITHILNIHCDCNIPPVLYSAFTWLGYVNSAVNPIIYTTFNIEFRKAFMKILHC

[5] = biological target: T2, Muscarinic acetylcholine receptor M2 (Rattus norvegicus, UniProt P10980); assay: Inhibitory activity against [3H]N-methyl-scopolamine binding to Muscarinic acetylcholine receptor M2 in rat cerebellum; type: tissue-based
T2 sequence (P10980 whole entry): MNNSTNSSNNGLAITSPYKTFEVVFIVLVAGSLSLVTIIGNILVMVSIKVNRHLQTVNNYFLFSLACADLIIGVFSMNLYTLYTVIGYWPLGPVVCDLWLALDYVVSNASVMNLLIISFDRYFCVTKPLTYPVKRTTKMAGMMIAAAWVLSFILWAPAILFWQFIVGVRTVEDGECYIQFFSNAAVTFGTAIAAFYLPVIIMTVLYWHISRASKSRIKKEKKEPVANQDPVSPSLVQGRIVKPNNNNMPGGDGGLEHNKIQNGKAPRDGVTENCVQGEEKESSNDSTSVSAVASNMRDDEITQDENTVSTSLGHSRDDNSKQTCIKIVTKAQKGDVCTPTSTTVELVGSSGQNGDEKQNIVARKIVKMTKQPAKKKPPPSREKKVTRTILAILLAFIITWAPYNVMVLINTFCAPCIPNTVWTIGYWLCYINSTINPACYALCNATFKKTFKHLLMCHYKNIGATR

Rattus norvegicus [6] = organism: Rattus norvegicus; assay: Inhibitory activity against [3H]norepinephrine (NE) uptake in rat whole brain; type: functional
Rattus norvegicus [7] = organism: Rattus norvegicus; assay: Inhibitory activity against [3H]norepinephrine (NE) uptake in rat hypothalamus; type: functional
Glutamate NMDA receptor [8] = assay: Inhibitory activity against [3H]TCP binding to Phencyclidine receptor in rat cortex
[9] = biological target: Voltage-dependent L-type calcium channel subunit alpha-1C (Rattus norvegicus, UniProt P22002); assay: Inhibition of [3H]nitrendipine binding to [Ca2+] channel of rat heart
Voltage-dependent L-type calcium channel subunit alpha-1C, sequence (P22002 whole entry): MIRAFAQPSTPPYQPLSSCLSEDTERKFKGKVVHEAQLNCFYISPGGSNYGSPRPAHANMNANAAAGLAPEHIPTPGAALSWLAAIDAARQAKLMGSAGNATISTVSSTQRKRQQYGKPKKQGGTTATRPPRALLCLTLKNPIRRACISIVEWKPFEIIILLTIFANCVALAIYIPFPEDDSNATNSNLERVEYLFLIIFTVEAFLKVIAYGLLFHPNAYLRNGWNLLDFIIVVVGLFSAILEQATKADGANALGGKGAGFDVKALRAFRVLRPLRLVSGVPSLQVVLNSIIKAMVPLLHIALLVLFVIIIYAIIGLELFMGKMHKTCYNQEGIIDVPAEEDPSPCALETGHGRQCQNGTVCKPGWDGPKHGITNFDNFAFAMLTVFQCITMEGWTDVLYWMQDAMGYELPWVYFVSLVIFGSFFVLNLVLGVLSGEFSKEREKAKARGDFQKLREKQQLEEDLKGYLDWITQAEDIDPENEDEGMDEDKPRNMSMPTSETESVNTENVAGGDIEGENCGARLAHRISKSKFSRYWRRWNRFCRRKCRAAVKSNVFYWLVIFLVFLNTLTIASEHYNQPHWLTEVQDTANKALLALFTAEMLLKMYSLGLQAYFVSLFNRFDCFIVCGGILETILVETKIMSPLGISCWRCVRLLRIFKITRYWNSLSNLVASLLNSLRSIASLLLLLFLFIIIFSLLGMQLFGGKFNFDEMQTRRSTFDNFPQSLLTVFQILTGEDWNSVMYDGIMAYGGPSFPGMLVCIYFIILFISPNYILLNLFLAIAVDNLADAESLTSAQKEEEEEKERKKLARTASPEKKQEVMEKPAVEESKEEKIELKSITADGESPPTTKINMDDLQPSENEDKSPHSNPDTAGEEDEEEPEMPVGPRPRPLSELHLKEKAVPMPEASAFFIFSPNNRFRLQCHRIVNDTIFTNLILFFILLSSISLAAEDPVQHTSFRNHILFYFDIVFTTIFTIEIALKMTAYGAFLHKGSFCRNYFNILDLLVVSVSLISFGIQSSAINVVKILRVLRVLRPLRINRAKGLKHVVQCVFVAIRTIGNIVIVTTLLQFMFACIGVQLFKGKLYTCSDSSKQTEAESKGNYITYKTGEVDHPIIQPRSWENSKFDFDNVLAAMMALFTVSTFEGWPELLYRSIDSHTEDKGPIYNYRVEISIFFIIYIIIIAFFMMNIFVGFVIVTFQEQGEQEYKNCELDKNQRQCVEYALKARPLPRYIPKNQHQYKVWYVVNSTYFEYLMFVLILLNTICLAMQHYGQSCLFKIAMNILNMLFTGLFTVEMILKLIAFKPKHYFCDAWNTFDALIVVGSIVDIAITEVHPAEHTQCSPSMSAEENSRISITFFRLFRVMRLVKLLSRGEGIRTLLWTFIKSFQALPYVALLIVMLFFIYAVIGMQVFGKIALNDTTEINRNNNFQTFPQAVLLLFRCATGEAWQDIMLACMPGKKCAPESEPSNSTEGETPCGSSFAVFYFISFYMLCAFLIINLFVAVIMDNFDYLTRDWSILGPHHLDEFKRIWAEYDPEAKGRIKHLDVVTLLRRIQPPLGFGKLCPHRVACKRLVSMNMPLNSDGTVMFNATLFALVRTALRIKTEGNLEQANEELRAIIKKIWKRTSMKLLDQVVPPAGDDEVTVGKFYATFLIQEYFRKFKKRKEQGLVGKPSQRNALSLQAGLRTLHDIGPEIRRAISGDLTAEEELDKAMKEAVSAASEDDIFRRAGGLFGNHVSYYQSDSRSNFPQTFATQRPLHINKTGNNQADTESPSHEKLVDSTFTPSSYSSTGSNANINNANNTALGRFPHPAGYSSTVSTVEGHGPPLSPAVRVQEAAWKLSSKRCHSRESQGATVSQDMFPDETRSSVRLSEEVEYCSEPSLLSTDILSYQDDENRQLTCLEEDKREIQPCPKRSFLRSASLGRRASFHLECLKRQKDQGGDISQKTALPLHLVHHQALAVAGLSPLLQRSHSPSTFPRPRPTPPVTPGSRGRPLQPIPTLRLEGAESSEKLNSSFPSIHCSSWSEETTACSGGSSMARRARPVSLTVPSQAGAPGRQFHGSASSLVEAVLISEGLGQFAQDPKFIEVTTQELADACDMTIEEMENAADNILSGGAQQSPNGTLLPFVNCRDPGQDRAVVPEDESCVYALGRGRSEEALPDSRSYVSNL

[10] = biological target: Muscarinic acetylcholine receptor; assay: Inhibitory activity against [3H]oxotremorine-M binding to muscarinic receptors in rat forebrain membrane; type: cell membranes
[11] = biological target: 5-hydroxytryptamine receptor 1B (Rattus norvegicus, UniProt P28564); assay: Inhibitory activity against [3H]5-HT binding to 5-HT1B receptor in rat striatum; type: tissue-based
5-hydroxytryptamine receptor 1B, sequence (P28564 whole entry): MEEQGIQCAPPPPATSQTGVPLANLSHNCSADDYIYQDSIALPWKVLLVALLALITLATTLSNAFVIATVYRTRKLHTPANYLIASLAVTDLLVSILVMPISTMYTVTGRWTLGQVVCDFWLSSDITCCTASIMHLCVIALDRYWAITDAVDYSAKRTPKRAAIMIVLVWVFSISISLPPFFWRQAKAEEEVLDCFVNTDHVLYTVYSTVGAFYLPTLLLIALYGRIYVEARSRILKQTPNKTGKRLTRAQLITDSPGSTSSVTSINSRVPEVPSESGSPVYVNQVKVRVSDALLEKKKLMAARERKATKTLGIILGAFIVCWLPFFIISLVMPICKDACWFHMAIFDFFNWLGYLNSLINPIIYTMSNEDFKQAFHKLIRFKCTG

[12] = biological target: T2, Muscarinic acetylcholine receptor M2; assay: Inhibitory activity against [3H]N-methyl-scopolamine in rat Muscarinic acetylcholine receptor M2 cerebellum in the presence GPP(NH)P; type: tissue-based
[13] = biological target: T3, 5-hydroxytryptamine receptor 1A (Rattus norvegicus, UniProt P19327); assay: Inhibitory activity against [3H]DPAT binding to 5-HT1A receptor in rat hippocampus; type: tissue-based
T3 sequence (P19327 whole entry): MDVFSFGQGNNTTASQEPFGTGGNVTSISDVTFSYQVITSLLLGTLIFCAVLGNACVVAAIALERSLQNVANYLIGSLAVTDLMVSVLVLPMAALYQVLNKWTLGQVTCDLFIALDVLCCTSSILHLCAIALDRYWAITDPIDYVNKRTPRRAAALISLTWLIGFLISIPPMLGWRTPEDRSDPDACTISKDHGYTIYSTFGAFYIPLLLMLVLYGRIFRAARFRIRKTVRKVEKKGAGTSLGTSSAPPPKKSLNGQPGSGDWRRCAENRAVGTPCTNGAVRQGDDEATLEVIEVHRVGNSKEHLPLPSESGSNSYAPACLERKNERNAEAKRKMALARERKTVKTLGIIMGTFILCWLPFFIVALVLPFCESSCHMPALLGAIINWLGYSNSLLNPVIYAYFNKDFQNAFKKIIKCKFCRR

Rattus norvegicus [14] = organism: Rattus norvegicus; assay: Inhibitory activity against [3H]5-HT uptake in rat whole brain; type: functional

CCCN(c1ccncc1)n1ccc2ccccc21 [BESIPIRDINE]
IC50 [1]: 250 nM
pIC50 (Glutamate NMDA receptor [2]): < 4.70
IC50 [3]: 140 nM
IC50 [4]: 470 nM
pIC50 (D(1A) dopamine receptor): < 4.70
pIC50 (D(2) dopamine receptor): < 4.70
pIC50 [5]: 6.00
pIC50 (Rattus norvegicus [6]): 6.37
pIC50 (Rattus norvegicus [7]): 6.57
pIC50 (Glutamate NMDA receptor [8]): < 4.70
pIC50 [9]: < 4.00
IC50 [10]: 460 nM
pIC50 [11]: < 4.70
pIC50 [12]: 6.19
pIC50 [13]: > 4.70
pIC50 (Rattus norvegicus [14]): 5.59
